In ChEMBL document CHEMBL5137043, “trans, trans-2-C-Aryl-3,4-dihydroxypyrrolidines as potent and selective β-glucosidase inhibitors: Pharmacological chaperones for Gaucher disease” (Eur J Med Chem, 2022):

Key:
[1] = Inhibition of human lysosomal beta-glucosidase assessed as reduction of p-nitrophenol release using p-nitrophenyl-glycoside as substrate by spectrophotometric analysis; format: subcellular, Lysosome
[2] = Inhibition of porcine kidney alpha-trehalase assessed as reduction of p-nitrophenol release using p-nitrophenyl-glycoside as substrate by spectrophotometric analysis; format: tissue-based, Sus scrofa
Bos taurus [3] = species on record: Bos taurus; test: Inhibition of bovine liver beta-glucuronidase assessed as reduction of p-nitrophenol release using p-nitrophenyl-glycoside as substrate at 1000 uM by spectrophotometric analysis
[4] = molecular target: Alpha-galactosidase (Coffea arabica) (UniProt Q42656); test: Inhibition of coffee beans alpha-galactosidase assessed as reduction of p-nitrophenol release using p-nitrophenyl-glycoside as substrate at 1000 uM by spectrophotometric analysis
[5] = molecular target: T1, Tissue alpha-L-fucosidase (Bos taurus) (UniProt Q2KIM0); test: Inhibition of bovine kidney alpha-L-fucosidase assessed as reduction of p-nitrophenol release using p-nitrophenyl-glycoside as substrate at 1000 uM by spectrophotometric analysis; format: tissue-based
T1 sequence (whole entry): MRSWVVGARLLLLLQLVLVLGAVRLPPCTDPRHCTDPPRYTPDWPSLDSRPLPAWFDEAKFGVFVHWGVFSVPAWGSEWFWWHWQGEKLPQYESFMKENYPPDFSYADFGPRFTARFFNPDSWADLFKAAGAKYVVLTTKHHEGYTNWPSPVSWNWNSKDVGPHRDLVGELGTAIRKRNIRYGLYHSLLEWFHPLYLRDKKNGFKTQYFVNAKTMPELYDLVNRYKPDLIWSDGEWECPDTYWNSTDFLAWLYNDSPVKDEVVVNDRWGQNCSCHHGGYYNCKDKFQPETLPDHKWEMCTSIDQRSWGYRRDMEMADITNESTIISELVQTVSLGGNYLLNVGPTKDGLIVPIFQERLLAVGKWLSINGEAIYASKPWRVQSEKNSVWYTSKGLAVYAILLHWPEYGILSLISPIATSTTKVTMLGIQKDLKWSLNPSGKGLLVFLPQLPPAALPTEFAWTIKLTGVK

Bos taurus [6] = species on record: Bos taurus; test: Inhibition of bovine liver beta-glucosidase assessed as reduction of p-nitrophenol release using p-nitrophenyl-glycoside as substrate at 1000 uM by spectrophotometric analysis
[7] = Inhibition of yeast alpha-glucosidase assessed as reduction of p-nitrophenol release using p-nitrophenyl-glycoside as substrate by spectrophotometric analysis; parameters: species or system Saccharomyces cerevisiae
Helix pomatia = test: Inhibition of snail beta-mannosidase assessed as reduction of p-nitrophenol release using p-nitrophenyl-glycoside as substrate at 1000 uM by spectrophotometric analysis
Penicillium decumbens = test: Inhibition of Penicillium decumbens alpha-L-rhamnosidase assessed as reduction of p-nitrophenol release using p-nitrophenyl-glycoside as substrate at 1000 uM by spectrophotometric analysis
[8] = Inhibition of rice alpha-glucosidase assessed as reduction of p-nitrophenol release using p-nitrophenyl-glycoside as substrate by spectrophotometric analysis; parameters: species or system Oryza sativa
[9] = Inhibition of almond beta-glucosidase assessed as reduction of p-nitrophenol release using p-nitrophenyl-glycoside as substrate by spectrophotometric analysis; parameters: species or system Prunus dulcis
[10] = Inhibition of Aspergillus niger amyloglucosidase assessed as reduction of p-nitrophenol release using p-nitrophenyl-glycoside as substrate by spectrophotometric analysis
Escherichia coli = test: Inhibition of Escherichia coli beta-glucuronidase assessed as reduction of p-nitrophenol release using p-nitrophenyl-glycoside as substrate at 1000 uM by spectrophotometric analysis
Bos taurus [11] = species on record: Bos taurus; test: Inhibition of bovine liver beta-galactosidase assessed as reduction of p-nitrophenol release using p-nitrophenyl-glycoside as substrate at 1000 uM by spectrophotometric analysis
[12] = molecular target: T2, Alpha-mannosidase (Canavalia ensiformis) (UniProt C0HJB3); test: Inhibition of jack bean alpha-mannosidase assessed as reduction of p-nitrophenol release using p-nitrophenyl-glycoside as substrate at 1000 uM by spectrophotometric analysis
T2 sequence (whole entry): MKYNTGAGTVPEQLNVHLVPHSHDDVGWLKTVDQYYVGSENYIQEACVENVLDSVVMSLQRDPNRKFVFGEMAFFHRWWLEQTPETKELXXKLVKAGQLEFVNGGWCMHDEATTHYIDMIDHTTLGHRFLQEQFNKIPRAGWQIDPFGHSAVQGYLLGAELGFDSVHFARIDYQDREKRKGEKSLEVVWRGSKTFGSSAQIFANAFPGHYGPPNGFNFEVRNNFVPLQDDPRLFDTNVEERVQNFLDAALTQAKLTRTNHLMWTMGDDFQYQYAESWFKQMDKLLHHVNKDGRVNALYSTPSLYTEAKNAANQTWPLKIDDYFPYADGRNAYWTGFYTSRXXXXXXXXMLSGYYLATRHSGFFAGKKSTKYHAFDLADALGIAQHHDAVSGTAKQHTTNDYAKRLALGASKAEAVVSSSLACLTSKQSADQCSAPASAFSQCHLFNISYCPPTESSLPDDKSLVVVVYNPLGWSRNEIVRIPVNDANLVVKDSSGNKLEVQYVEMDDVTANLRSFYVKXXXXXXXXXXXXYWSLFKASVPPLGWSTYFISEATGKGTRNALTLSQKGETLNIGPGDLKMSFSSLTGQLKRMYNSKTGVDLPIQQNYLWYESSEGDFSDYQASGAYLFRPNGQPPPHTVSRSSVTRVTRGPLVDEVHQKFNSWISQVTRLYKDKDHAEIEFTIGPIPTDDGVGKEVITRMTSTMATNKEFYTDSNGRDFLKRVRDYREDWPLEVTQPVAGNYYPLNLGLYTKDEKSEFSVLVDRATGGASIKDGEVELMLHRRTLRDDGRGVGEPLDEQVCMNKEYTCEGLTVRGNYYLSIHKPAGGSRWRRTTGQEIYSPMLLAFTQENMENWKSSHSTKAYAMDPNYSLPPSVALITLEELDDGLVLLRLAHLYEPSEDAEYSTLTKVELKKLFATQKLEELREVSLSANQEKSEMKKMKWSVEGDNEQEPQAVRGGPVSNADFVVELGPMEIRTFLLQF

Aspergillus niger = test: Inhibition of Aspergillus niger amyloglucosidase assessed as reduction of p-nitrophenol release using p-nitrophenyl-glycoside as substrate at 1000 uM by spectrophotometric analysis
Homo sapiens = species on record: Homo sapiens; test: Inhibition of human lysosomal beta-glucosidase assessed as reduction of p-nitrophenol release using p-nitrophenyl-glycoside as substrate at 1000 uM by spectrophotometric analysis; format: subcellular; conditions: Lysosome
Prunus dulcis = test: Inhibition of almond beta-glucosidase assessed as reduction of p-nitrophenol release using p-nitrophenyl-glycoside as substrate at 1000 uM by spectrophotometric analysis
[13] = molecular target: Lysosomal alpha-glucosidase (Rattus norvegicus) (UniProt Q6P7A9); test: Inhibition of rat small intestinal maltase assessed as reduction of D-glucose release using maltose as substrate at 1000 uM by colorimetric analysis; format: tissue-based; conditions: Small intestine
[14] = molecular target: Sucrase-isomaltase, intestinal (Rattus norvegicus) (UniProt P23739); test: Inhibition of rat small intestinal sucrase assessed as reduction of p-nitrophenol release using p-nitrophenyl-glycoside as substrate at 1000 uM by spectrophotometric analysis; format: tissue-based; conditions: Small intestine
[15] = Inhibition of bovine liver beta-galactosidase assessed as reduction of p-nitrophenol release using p-nitrophenyl-glycoside as substrate by spectrophotometric analysis; parameters: species or system Bos taurus
Sus scrofa = species on record: Sus scrofa; test: Inhibition of porcine kidney alpha-trehalase assessed as reduction of p-nitrophenol release using p-nitrophenyl-glycoside as substrate at 1000 uM by spectrophotometric analysis; format: tissue-based
[16] = molecular target: Lysosomal alpha-glucosidase (Homo sapiens) (UniProt P10253); test: Inhibition of human lysosomal alpha-glucosidase assessed as reduction of p-nitrophenol release using p-nitrophenyl-glycoside as substrate at 1000 uM by spectrophotometric analysis; conditions: Lysosome
Saccharomyces cerevisiae = test: Inhibition of yeast alpha-glucosidase assessed as reduction of p-nitrophenol release using p-nitrophenyl-glycoside as substrate at 1000 uM by spectrophotometric analysis
Oryza sativa = test: Inhibition of rice alpha-glucosidase assessed as reduction of p-nitrophenol release using p-nitrophenyl-glycoside as substrate at 1000 uM by spectrophotometric analysis
[17] = Inhibition of bovine liver beta-glucosidase assessed as reduction of p-nitrophenol release using p-nitrophenyl-glycoside as substrate by spectrophotometric analysis; format: tissue-based, Bos taurus
[18] = Inhibition of Escherichia coli beta-glucuronidase assessed as reduction of p-nitrophenol release using p-nitrophenyl-glycoside as substrate by spectrophotometric analysis
[19] = molecular target: Sucrase-isomaltase, intestinal (Rattus norvegicus, UniProt P23739); test: Inhibition of rat small intestinal sucrase assessed as reduction of p-nitrophenol release using p-nitrophenyl-glycoside as substrate by spectrophotometric analysis; format: tissue-based, Small intestine
[20] = molecular target: T3, Lysosomal acid glucosylceramidase (Homo sapiens, UniProt P04062); test: Inhibition of human GCase assessed as reduction of 4-methylumbelliferone liberation using 4-methylumbelliferyl-beta-glucopyranoside as substrate preincubated with enzyme for 10 mins followed by substrate addition by fluorescence spectrophotometry
T3 sequence (P04062 whole entry): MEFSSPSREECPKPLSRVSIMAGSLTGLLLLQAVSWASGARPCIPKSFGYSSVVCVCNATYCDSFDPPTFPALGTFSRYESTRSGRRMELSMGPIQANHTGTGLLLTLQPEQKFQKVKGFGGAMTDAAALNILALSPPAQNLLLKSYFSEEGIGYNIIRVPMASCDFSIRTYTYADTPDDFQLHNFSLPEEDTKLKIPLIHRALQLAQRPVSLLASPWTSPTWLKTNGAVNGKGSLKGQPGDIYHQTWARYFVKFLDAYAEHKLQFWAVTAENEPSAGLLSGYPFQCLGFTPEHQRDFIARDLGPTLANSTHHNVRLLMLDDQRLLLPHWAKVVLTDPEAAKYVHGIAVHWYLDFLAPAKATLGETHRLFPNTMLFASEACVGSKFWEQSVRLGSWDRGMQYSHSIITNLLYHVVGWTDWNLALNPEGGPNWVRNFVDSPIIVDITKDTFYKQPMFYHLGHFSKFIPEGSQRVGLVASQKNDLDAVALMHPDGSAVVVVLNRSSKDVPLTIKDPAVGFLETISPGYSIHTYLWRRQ

[21] = Inhibition of Penicillium decumbens alpha-L-rhamnosidase assessed as reduction of p-nitrophenol release using p-nitrophenyl-glycoside as substrate by spectrophotometric analysis

Sequence of Alpha-galactosidase (Coffea arabica) (Q42656 16-378 limits assumed): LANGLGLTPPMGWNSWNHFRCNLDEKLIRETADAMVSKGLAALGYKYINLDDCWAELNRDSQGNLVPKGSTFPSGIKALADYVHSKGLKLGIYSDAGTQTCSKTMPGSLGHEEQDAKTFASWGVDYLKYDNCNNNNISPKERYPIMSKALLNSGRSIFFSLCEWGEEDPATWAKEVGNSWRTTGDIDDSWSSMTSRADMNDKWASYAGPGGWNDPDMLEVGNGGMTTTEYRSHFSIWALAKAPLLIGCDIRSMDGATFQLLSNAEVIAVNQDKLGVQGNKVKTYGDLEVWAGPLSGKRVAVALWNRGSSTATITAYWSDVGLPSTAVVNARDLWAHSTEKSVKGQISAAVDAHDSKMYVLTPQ
Sequence of Lysosomal alpha-glucosidase (Rattus norvegicus) (Q6P7A9 whole entry): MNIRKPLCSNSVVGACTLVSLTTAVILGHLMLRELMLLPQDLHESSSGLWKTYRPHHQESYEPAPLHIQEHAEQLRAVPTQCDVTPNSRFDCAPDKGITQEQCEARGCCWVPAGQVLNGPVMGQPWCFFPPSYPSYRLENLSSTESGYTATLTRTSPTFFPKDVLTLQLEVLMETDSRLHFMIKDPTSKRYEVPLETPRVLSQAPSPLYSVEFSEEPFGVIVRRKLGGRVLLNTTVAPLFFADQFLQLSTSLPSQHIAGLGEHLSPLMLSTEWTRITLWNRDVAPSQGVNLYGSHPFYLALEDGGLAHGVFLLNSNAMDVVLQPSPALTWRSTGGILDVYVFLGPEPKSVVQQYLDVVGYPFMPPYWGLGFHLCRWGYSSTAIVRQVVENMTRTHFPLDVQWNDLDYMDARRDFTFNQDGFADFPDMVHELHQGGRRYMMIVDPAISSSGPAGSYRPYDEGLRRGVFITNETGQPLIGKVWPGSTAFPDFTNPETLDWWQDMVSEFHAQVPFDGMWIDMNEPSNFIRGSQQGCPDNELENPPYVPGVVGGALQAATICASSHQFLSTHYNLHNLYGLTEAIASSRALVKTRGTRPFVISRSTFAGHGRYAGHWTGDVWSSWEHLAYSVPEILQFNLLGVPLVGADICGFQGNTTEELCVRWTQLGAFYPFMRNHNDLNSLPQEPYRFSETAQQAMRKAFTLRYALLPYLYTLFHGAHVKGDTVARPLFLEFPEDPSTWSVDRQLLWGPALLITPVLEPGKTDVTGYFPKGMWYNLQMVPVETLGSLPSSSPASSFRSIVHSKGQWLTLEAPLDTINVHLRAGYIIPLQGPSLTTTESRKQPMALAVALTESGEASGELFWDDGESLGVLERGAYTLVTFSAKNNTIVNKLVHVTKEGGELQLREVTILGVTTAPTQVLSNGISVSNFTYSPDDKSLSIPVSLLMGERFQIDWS
Sequence of Sucrase-isomaltase, intestinal (P23739 1-1013 limits assumed): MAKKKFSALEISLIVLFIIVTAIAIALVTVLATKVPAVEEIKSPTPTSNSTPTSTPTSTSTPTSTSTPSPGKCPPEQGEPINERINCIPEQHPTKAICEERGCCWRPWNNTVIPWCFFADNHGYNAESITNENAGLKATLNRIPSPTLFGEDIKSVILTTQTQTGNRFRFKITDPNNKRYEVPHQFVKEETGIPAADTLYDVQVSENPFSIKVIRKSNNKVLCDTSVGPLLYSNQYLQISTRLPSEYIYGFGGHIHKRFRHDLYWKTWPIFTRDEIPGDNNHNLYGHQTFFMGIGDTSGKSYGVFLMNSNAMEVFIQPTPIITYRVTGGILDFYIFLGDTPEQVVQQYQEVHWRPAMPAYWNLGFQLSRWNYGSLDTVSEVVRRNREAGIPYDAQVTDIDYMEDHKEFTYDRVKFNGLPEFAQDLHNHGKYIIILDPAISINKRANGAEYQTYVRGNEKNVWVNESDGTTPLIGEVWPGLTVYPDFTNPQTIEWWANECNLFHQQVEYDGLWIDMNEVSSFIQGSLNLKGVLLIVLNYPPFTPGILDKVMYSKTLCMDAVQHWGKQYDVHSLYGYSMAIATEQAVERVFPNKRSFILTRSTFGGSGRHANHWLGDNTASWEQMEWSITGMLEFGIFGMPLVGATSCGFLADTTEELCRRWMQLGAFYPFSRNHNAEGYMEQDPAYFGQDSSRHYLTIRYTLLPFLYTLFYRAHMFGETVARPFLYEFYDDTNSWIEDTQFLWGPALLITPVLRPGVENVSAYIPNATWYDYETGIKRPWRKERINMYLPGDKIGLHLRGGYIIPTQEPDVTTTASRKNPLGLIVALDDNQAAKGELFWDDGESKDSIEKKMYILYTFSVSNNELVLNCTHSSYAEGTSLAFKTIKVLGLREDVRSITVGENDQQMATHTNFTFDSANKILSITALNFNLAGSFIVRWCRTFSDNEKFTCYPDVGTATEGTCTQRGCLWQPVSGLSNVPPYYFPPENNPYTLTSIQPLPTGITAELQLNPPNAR
Sequence of Sucrase-isomaltase, intestinal (P23739 1014-1841 limits assumed): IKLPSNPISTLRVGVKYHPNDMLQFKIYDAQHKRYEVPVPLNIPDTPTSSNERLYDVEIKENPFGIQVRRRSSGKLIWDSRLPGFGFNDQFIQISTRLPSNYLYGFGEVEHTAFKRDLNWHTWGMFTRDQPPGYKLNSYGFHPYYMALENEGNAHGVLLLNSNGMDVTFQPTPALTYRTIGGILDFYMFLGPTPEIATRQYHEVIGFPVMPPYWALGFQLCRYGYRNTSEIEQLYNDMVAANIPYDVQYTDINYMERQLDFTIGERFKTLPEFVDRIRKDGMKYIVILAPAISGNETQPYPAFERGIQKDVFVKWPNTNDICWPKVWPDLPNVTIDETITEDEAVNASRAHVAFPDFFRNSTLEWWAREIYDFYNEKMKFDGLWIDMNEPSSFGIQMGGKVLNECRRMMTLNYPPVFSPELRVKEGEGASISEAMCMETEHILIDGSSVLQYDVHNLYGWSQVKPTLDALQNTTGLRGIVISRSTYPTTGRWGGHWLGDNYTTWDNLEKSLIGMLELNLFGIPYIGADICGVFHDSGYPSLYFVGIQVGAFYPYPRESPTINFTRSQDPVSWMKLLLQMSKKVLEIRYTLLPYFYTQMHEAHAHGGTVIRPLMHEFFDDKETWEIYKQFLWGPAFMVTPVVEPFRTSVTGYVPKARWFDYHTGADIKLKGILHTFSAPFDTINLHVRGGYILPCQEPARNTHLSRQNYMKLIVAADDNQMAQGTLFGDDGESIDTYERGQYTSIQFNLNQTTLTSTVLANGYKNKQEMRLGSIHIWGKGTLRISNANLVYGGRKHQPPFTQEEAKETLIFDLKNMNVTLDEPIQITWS
Sequence of Sucrase-isomaltase, intestinal (Rattus norvegicus) (P23739 1-1013 limits assumed): as the sequence (P23739 1-1013 limits assumed) above
Sequence of Sucrase-isomaltase, intestinal (Rattus norvegicus) (P23739 1014-1841 limits assumed): as the sequence (P23739 1014-1841 limits assumed) above

SMILES | IC50 [1] | inhibition (Bos taurus [3]) | inhibition [4] | inhibition [5] | inhibition (Bos taurus [6]) | inhibition (Helix pomatia) | inhibition (Penicillium decumbens) | IC50 [8] | IC50 [9] | inhibition (Escherichia coli) | inhibition [12] | inhibition (Aspergillus niger) | inhibition (Prunus dulcis) | inhibition [13] | IC50 [15] | inhibition (Sus scrofa) | inhibition [16] | inhibition (Saccharomyces cerevisiae) | inhibition (Oryza sativa) | other results
OC[C@H]1NC[C@@H](O)[C@@H]1O | 340 µM | 6.3% | 4.1% | 9% | 7.9% | 13% | 13.5% | 87 µM | 967 µM | 5.3% | – | – | – | – | – | – | – | – | – | IC50 [2]: 11 µM; IC50 [7]: 2.5 µM; IC50 [10]: 355 µM; inhibition (Bos taurus [11]): 11.4%
O[C@H]1[C@H](O)CN[C@@H]1c1ccccc1 | 11 µM | 15% | 8.6% | 0% | 43.7% | 10.1% | 0.5% | 466 µM | – | 20.3% | 8.3% | 2% | 3.9% | 12.4% | 441 µM | 6.1% | 29% | 0.3% | – | inhibition [14]: 39.9%
O[C@@H]1[C@@H](O)CN[C@H]1c1ccc(-c2ccccc2)cc1 | 1.2 µM | 4.2% | 0.3% | 0% | – | 14.9% | 6.4% | – | 234 µM | – | 0% | 0% | – | 28.8% | 83 µM | 1.6% | 15.6% | 4.7% | 10.3% | IC50 [17]: 458 µM; IC50 [18]: 418 µM; IC50 [19]: 580 µM
CCCCN1C[C@H](CO)[C@@H](O)[C@H](O)C1 | – | – | – | – | – | – | – | – | – | – | – | – | – | – | – | – | – | – | – | IC50 [20]: 44 µM
O[C@H]1[C@H](CCCc2ccccc2)NC[C@@H]1O | 9.5 µM | 0.3% | 0% | 0% | 35% | 5.2% | – | – | – | 42.7% | 11.5% | 0% | 48.8% | – | 665 µM | 0% | 27.8% | 30% | 42.9% | IC50 [21]: 131 µM; IC50 [19]: 178 µM

The next lines start with results.

IC50 [1] | inhibition (Bos taurus [3]) | inhibition [4] | inhibition [5] | inhibition (Bos taurus [6]) | inhibition (Helix pomatia) | inhibition (Penicillium decumbens) | IC50 [8] | IC50 [9] | inhibition (Escherichia coli) | inhibition [12] | inhibition (Aspergillus niger) | inhibition (Prunus dulcis) | inhibition [13] | IC50 [15] | inhibition (Sus scrofa) | inhibition [16] | inhibition (Saccharomyces cerevisiae) | inhibition (Oryza sativa) | SMILES | other results
– | 6.3% | 3.9% | 13.3% | 4.6% | 0.5% | 1.3% | 1.9 µM | – | 8% | 0% | 25.6% | 32.6% | – | – | – | – | – | – | OC[C@@H]1NCC(O)C1O (single isomer, unassigned) | IC50 [2]: 161 µM; IC50 [7]: 163 µM; inhibition (Homo sapiens): 16.1%; inhibition (Bos taurus [11]): 8.3%
0.76 µM | 2.3% | 0% | 0% | 39.9% | 9.7% | 0% | – | 285 µM | – | 0% | 0% | – | 15.8% | 328 µM | 13.1% | 2.9% | 10.1% | 19% | O[C@H]1[C@H](O)CN[C@@H]1c1ccc(-c2ccccc2)cc1 | inhibition [14]: 47.4%; IC50 [18]: 281 µM
